Two compounds from patent US11691984B2, “Compounds and methods for DCAF-mediated protein degradation” (The Scripps Research Institute, priority 2018, dated 2023) can be followed below.

What all share (type): cell-based
Assay [1] deals with T1, BRD3 (Homo sapiens, UniProt Q15059).
T1 construct: endogenous in cells; host or cells: HEK293T
The assay can be described thus: Proteome-wide SILAC MS protein abundance in HEK293T cells: BRD3. The conditions noted are these: KB02-JQ1 20 μM, 24 hours. As to the method: HEK293T light and heavy SILAC cells were treated with DMSO and KB02-JQ1 (20 μM) or KB02-SLF (2 μM) for 24 hours, respectively. Light and heavy cells were collected and lysed in 1% NP-40 lysis buffer with complete protease inhibitor cocktail. Cells were vortexed and sonicated for 5 pulses (40%, 4). The supernatant was collected after centrifugation at 16,000 g for 10 min at 4° C. Protein concentration was determined by DC assay. 50 μg proteome from light and heavy samples were mixed, followed by methanol/chloroform precipitation. […] Next, the ratio of the peak areas under the light and heavy signals (signal-to-noise ratio>2.5) was calculated. […] In addition, peptides detected as ‘singletons,’ where only the heavy ion of a peptide pair was identified, but that cleared all other filtering parameters, were given a default assigned ratio of ‘20,’ which is defined as any measured ratio that is ≥20 and is the maximum ratio reported here.” The median SILAC ratios from quantified peptides were used as measures of protein abundance. The following quality filters were further applied to generate the plot: (1) proteins must have at least two quantified peptides; (2) proteins must be present in both replicates; (3) for each protein, the standard deviation of measured ratios of peptides must be <1.0.

Assay [2] concerns the target T2, BRD4 (Homo sapiens, UniProt O60885).
T2 construct: degradation of endogenous BRD4 in HEK293T cells; endogenous in cells; host or cells: HEK293T (A10, A16); HEK293 DCAF16+/+ and DCAF16-/- clones (A11)
Briefly: Western blot of BRD4 in DCAF16−/− HEK293 cells. The conditions noted are these: 40 μM KB02-JQ1, 24 hours. Here is the method:
DCAF16 CRISPR knockout HEK293 cell pools were generated by Synthego using nucleofection of Cas9-gRNA ribonucleoprotein (RNP) complex. Editing efficiency 48 h post nucleofection of cell pool was 88%. HEK293 editing cell pools were subjected to single cell sorting in The Flow Cytometry Core Facility at Scripps Research. Individual cell clone was grown in 96-well plate until the cells were confluent. To confirm the editing in DCAF16 gene, genomic DNAs from each clone were extracted using PureLink Genomic DNA Mini Kit (Invitrogen). DCAF16 gene was amplified by PCR and confirmed by DNA sequencing. Indel analysis was performed using ICE analysis from Synthego.
Cells were collected and lysed in 1% NP-40 lysis buffer (25 mM Tris-HCl pH 7.4, 150 mM NaCl, 10% glycerol, 1% Nonidet P-40) with complete protease inhibitor cocktail (Roche). Cells were vortexed and sonicated for 5 pulses (40%, 4). The supernatant was collected after centrifugation at 16,000 g for 10 min at 4° C. Protein concentration was determined by DC assay (Bio-Rad). Protein lysate was heated at 95° C. for 5 min in 1× Laemmli sample buffer. […] The chemiluminescence signal in membrane was recorded after developing in ECL or ECL plus western blotting detection reagent using CL-XPosure film (Thermo Scientific). Relative band intensities were quantified using ImageJ.

The target in assay [3] is FLAG-FKBP12_NLS (Homo sapiens, UniProt P62942). Briefly: Western blot of stably expressed FLAG-FKBP12_NLS in MDA-MB-231 cells. On the set-up: expressed in transfected cells; host or cells: HEK293T, MDA-MB-231 and HEK293 DCAF16+/+ and DCAF16-/- clones (lentiviral pCDH-CMV-MCS-EF1-Puro). The conditions noted are these: 1 μM, 8 hours. Here is the method: FLAG-FKBP12 or FLAG-FKBP12_NLS lentivirus was generated by co-transfection of FLAG-FKBP12 or FLAG-FKBP12_NLS, pCMV-dR8.2 and pMD2.G into HEK 293T cells using FuGene 6 transfection reagent (Promega). Virus-containing medium were collected 48 h after transfection, filtered with […] filter, and used to transduce HEK293T and MDA-MB-231 cells in the presence of 10 μg/mL polybrene (Santa Cruz). 72 h after transduction, puromycin (2 μg/mL) was added to cells. HEK293T cells stably expressing FLAG-FKBP12 or FLAG-FKBP12_NLS were obtained after puromycin selection for 7 days. HEK293T cells stably expressing pCDH empty vector were generated in parallel as control.
Cells were collected and lysed in 1% NP-40 lysis buffer (25 mM Tris-HCl pH 7.4, 150 mM NaCl, 10% glycerol, 1% Nonidet P-40) with complete protease inhibitor cocktail (Roche). Cells were vortexed and sonicated for 5 pulses (40%, 4). The supernatant was collected after centrifugation at 16,000 g for 10 min at 4° C. Protein concentration was determined by DC assay (Bio-Rad). Protein lysate was heated at 95° C. for 5 min in 1× Laemmli sample buffer. Proteins were resolved by 12% or 14% Novex Tris-Glycine Mini Gels (Invitrogen) and transferred to polyvinylidene fluoride (PVDF) membrane (0.2 Bio-Rad). The membrane was blocked with 5% BSA in TBST buffer (0.1% Tween 20, 20 mM Tris-HCl 7.6, 150 mM NaCl) at room temperature for 1 h. The antibody was diluted with fresh 5% BSA in TBST buffer (1:10000 dilution for FLAG, HA and β-Actin, 1:1000 dilution for others) and incubated with membrane (1 h room temperature for FLAG, HA and β-Actin, overnight 4° C. for others). Membrane was washed three times with TBST buffer and incubated with secondary antibody (1:5000 dilution in 5% BSA in TBST) at room temperature for 1 h. Membrane was washed three times with TBST buffer. The chemiluminescence signal in membrane was recorded after developing in ECL or ECL plus western blotting detection reagent using CL-XPosure film (Thermo Scientific). Relative band intensities were quantified using ImageJ.
Background: In western blotting, separated proteins are transferred to a membrane and probed.

T1 sequence (Q15059 whole entry): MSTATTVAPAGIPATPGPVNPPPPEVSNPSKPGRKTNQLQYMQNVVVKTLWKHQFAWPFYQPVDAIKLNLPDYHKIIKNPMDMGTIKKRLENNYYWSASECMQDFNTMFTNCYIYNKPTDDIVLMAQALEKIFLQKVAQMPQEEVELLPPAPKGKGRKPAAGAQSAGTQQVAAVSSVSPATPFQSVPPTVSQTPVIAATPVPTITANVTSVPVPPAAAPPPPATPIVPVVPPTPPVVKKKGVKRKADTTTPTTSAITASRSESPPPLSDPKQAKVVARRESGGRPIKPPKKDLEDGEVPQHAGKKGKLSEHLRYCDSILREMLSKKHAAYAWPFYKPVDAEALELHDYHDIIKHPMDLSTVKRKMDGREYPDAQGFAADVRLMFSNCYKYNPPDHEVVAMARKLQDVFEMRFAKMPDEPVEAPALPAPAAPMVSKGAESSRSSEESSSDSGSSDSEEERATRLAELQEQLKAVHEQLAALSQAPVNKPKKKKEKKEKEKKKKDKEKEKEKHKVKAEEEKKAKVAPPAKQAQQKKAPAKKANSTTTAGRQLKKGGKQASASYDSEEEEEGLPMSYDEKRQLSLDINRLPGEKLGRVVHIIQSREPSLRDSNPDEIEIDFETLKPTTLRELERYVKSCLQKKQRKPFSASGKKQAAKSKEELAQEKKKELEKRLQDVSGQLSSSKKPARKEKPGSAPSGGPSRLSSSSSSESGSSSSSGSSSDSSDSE
FLAG-FKBP12_NLS, sequence (P62942 whole entry): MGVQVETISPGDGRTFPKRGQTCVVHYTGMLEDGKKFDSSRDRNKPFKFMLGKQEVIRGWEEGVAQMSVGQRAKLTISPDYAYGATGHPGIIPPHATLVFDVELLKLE

Take `Cc1sc2c(c1C)C(c1ccc(Cl)cc1)=N[C@@H](CC(=O)NCCOCCOCCNC(=O)COc1ccc3c(c1)CCCN3C(=O)CCl)c1nnc(C)n1-2` [KB02-JQ1, (S)-2-((1-(2-chloroacetyl)-1,2,3,4-tetrahydroquinolin-6-yl)oxy)-N-(2-(2-(2-(2-(4-(4-chlorophenyl)-2,3,9-trimethyl-6H-thieno[3,2-f][1,2,4]triazolo[4,3-a][1,4]diazepin-6-yl)acetamido)ethoxy)ethoxy)ethyl)acetamide]: in assay [1], the “BRD3 abundance (MS-based proteomics)” value is given as “not BRD2 or BRD3”. The “BRD4 degradation in DCAF16−/− cells” value in assay [2] is recorded as “substantially blocked”.
In the case of `CCC(C)(C)C(=O)C(=O)N1CCCC[C@H]1C(=O)O[C@H](CCc1ccc(OC)c(OC)c1)c1cccc(NC(=O)CCOCCOCCNC(=O)COc2ccc3c(c2)CCCN3C(=O)CCl)c1` [KB02-SLF, (R)-1-(3-(3-(2-(2-(2-((1-(2-chloroacetyl)-1,2,3,4-tetrahydroquinolin-6-yl)oxy)acetamido)ethoxy)ethoxy)propanamido)phenyl)-3-(3,4-dimethoxyphenyl)propyl (S)-1-(3,3-dimethyl-2-oxopentanoyl)piperidine-2-carboxylate], the “degradation of FLAG-FKBP12_NLS in MDA-MB-231 cells” value in assay [3] is recorded as “degrades FLAG-FKBP12_NLS”.
